The values that follow come from patent US9052321B2, “Flavivirus-based system for production of hepatitis C virus (HCV)” (priority 2008, dated 2015).

This test relates to HCV particles released by BHK-21 parental or BHK-WNV1 cells. Put plainly: Release of HCV envelope proteins/particles by BHK cells transfected with pHCVp7 after glycosylation or trafficking inhibitors (Western blot). The class given is cell-based, HCV 1a. The conditions noted are these: for HCV production and/or secretion: summary in the model of FIG. 13; for secretion of HCV envelope as well as core proteins: BHK parental and -WNV SG-replicon cells transfected with pHCVp7, 3 mM dnj, 3 mM pag or 0.3 mM alloxan, Western blot. How it is done: FIG. 2 illustrates factors affecting the release of HCV structural proteins: A) Enhancement by flavivirus, but not alphavirus subgenomic, replicons in BHK-21 cells: BHK-21 parental cells (lane 1) or bearing WNV1 (lane 2), Den2 (lane 3) or Semliki Forest virus SG-replicon (lane 4) were transfected with pHCVp7 (plasmid encoding HCV core to p7). Three days later, clarified culture media were pelleted over 15% sucrose cushion, then pellets were analyzed by Western blot with the following monoclonal antibodies: i) anti-HCV E2: AP33; ii) anti-HCV E1: A4, and iii) anti-HCV core: C1. B) WNV- and HCV-SG rep differentially affect the release of HCV-like particles. (left) BHK-21 cells, parental or bearing WNV1 SG-rep, were transfected with HCVp7, a plasmid encoding HCV core to p7. Three days later, HCV proteins in the lysate and supernatants (SN) were analyzed by Western Blot (WB). (right) HuH-7.5 cells (parental or harboring HCV 1a SG-rep) transfected with the same plasmid, were analyzed by WB. *, the E1/E2 signals were obtained with 60 ml of culture media instead of 15 ml for BHK parental and -WNV1 cells. C) N-glycosylation but not O-glycosylation is required for the release of HCV particles: BHK cells were transfected with pHCVp7, then treated or not with 3 mM deoxynojirimycin (dnj), 3 mM phenyl acetyl galactosaminide (pag) or 0.3 mM alloxan (all) for 2 days; HCV E1 Envelope released by BHK-21 parental or BHK-WNV1 cells was analyzed by Western blot after incubation with or without endoglycosidase H (endo-H).
FIG. 11 illustrates that secretion of HCV particles involves maturation of HCV glycoproteins in Golgi apparatus: A) Twelve hours after transfection of BHK-WNV1 cells with pHCVp7, cells were treated with 20 μM brefeldin-A (BFA) for 24 hours and the amounts of HCV E1 and E2 proteins in cell lysates and released particles were analyzed by WB; Hsp70=control. B) BHK and BHK-WNV1 cells were transfected with pHCVp7. Three days later, cells and particles in SN were harvested and treated with endo-H, followed by WB analysis. *, 30 ml culture media was used for parental BHK cells (15 ml for BHK-WNV1 cells).
To test the sensitivity of HCV glycoproteins produced in BHK-21 cells to endo-beta-N-acetyl-glucosaminidase H (endoglycosidase H/endo-H; New England Biolabs), cells were transfected with pHCVp7 plasmid. Three days later, supernatant was harvested as above; cell lysate and supernatant were then incubated in the presence of endo-H according to the manufacturer's protocols. For deoxyrijinomycin (DNJ) and brefeldin A (BFA) treatment, cells were transfected with pHCVp7 and, 12 hr later, the medium was replaced with DMEM containing 5 μg/ml BFA (Sigma), or 3 mM DNJ. Cells were grown for another 24 hr and supernatant was harvested.
Background: In western blotting, separated proteins are transferred to a membrane and probed.

On to `C[C@H]1CCC/C=C/[C@@H]2C[C@H](O)C[C@H]2[C@H](O)/C=C/C(=O)O1` [BFA, brefeldin A], for which the HCV secretion result (BHK-WNV1 cells, 20 μM BFA for 24 hours) is “abrogated”. The “electrophoretic mobility of intracellular HCV envelope proteins” value (BHK-WNV1 cells, BFA) is given as “enhanced”. Also, for the setting “BHK-WNV1 cells”, the “HCV production and/or secretion” value is “blocked”.

Consider `OC[C@H]1NC[C@H](O)[C@@H](O)[C@@H]1O` [DNJ, deoxynojirimycin], for which the “secretion of HCV envelope as well as core proteins” value (shortened to “secretion of HCV envelope as well”) was “strongly inhibited”. Where the note is “BHK-WNV1 cells”, the “HCV production and/or secretion” value is listed as “blocked”. The “release of HCV particles” value (parental BHK-21 and BHK-WNV1 cells, 3 mM DNJ) is “decreased”.

On to `O=C1NC(=O)C(=O)C(=O)N1` [alloxan], for which the “secretion of HCV envelope as well” value is listed as “marginal effects”.

For `CC(=O)N[C@H]1[C@@H](Oc2ccccc2)O[C@H](CO)[C@H](O)[C@@H]1O` [phenyl acetyl galactosaminide], the “secretion of HCV envelope as well” value was “marginal effects”.
